The experiment concerns Mycobacterium tuberculosis H37Rv growth inhibition, no glycerol. In words: Confirmatory growth inhibition assay, Mycobacterium tuberculosis H37Rv, absence of glycerol (AID 449764).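 For all read-outs here: growth read after 7 days of incubation.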 As to conditions: for IC90: measured here: IC90 growth inhibition.

Some results are limits rather than exact numbers.

On to `O=C(Nc1nc(-c2cc(Cl)sc2Cl)cs1)c1cccs1`, for which the IC50 (as a rule, the concentration that gives 50% inhibition) is 67.7 µM and the IC90 (as a rule, the concentration at which the effect reaches the 90% level) was greater than 100 µM. For the molecule `Cc1ccc(C(=O)C2CCN(CC(=O)Nc3nc(C)cs3)CC2)cc1`, the 50% inhibitory concentration (IC50) was 48.4 µM and the IC90 is 53.6 µM. For `CN=c1scc(-c2ccccc2Br)n1/N=C/c1ccc[nH]1` the same measures were 88.3 µM and 92.2 µM. For `CC1CCN(C(=O)c2ccc(-c3ccccc3Cl)o2)CC1`, the IC50 was 41 µM and the IC90 was 60.1 µM. With `CCOC(=O)c1c(C)n(-c2ccc(C)cc2)c2ccc(OCC(O)CNCC3CCCO3)cc12` (configuration not stated), the IC50 is 22.8 µM and the IC90 turned out to be 25.7 µM. On the same counts, the results for `CCOc1ccc(NC(=S)Nc2ccc(C)c([N+](=O)[O-])c2)cc1` are 27.7 µM and greater than 100 µM. For `N#C/C=C\Oc1ccc(Cl)cc1N` the same measures were 21.5 µM and 23.9 µM. As to `Clc1ccc(-c2cc3ccccc3nc2N2CCCC2)cc1`, the IC50 is 71.6 µM and the IC90 is greater than 100 µM. On the same counts, the results for `Cc1ccc(NC(=O)COc2ccccc2CNC(C)(C)CC(C)(C)C)cc1` are 24.6 µM and 36.2 µM. In the case of `O=[N+]([O-])c1ccc(-n2cnc3ccccc32)c([N+](=O)[O-])c1`, the IC50 was 96.4 µM and the IC90 is greater than 100 µM. Take `CC(=O)c1cccc(NC(=S)NC2CCCCCCC2)c1`: the IC50 was 27.3 µM and the IC90 was greater than 100 µM. On the same counts, the results for `Cn1c(-c2c(N)n(CCc3ccccc3)c3nc4ccccc4nc23)nc2ccccc21` are 17.9 µM and greater than 100 µM.

In the case of `N#Cc1nccnc1S(=O)(=O)c1cccs1`, the IC50 was 59.3 µM and the concentration for an effect of 90% (IC90) is 73.3 µM. On the same counts, the results for `N#CC(C(=O)Nc1ccccc1)=C1Nc2ccccc2N1` are 39.1 µM and greater than 100 µM. For `Cc1ccc(S(=O)(=O)NC(CC(C)C)C(=O)N2CCN(C/C=C/c3ccccc3)CC2)cc1` (configuration not stated) the same measures were 66.4 µM and 90.2 µM.

Turning to `CCOC(=O)/C(=N/Nc1ccccc1)c1csc(Nc2ccccc2)n1`, the IC50 is 41.6 µM and the IC90 was greater than 100 µM. On the same counts, the results for `CCN1/C(=C/c2ccc3cc(C)ccc3[n+]2CC)Sc2ccccc21` are 2.73 µM and 3.07 µM.

Regarding `CC1(c2ccc(OC(F)F)cc2)NC(=O)N(CC(=O)c2ccc3c(c2)OCO3)C1=O` (configuration not stated), the IC50 is 37.2 µM and the IC90 was 70.8 µM. For `Cc1ccc(C(=O)N/N=C(/CC(=O)c2cccs2)C(F)(F)F)cc1` the same measures were 2.25 µM and 3.18 µM. As to `CC1CCC(NC(=O)c2cc3c(s2)CCCC3)CC1` (configuration not stated), the IC50 is 67.7 µM and the IC90 was greater than 100 µM.

With `Cc1ccc(NC(=O)c2sccc2-n2cccc2)c(C)c1`, the IC90 was greater than 100 µM.

On to `COc1ccc(C2CC2/C(C)=N/OC(=O)c2ccc(F)cc2)cc1` (configuration not stated), for which the IC50 was 25.3 µM and the IC90 was determined as 52.2 µM. Regarding `CCCc1cc(-c2nc(-c3ccc(Br)cc3)cs2)ccn1`, the IC50 was 16.4 µM and the IC90 was 24.6 µM. On the same counts, the results for `COc1cc2nc(Nc3ccc(C)c(Cl)c3)nc(N)c2cc1OC` are 58.7 µM and 66.8 µM. For `CCOC(=O)COc1ccc(C2CC(C)=NN2c2ccccc2)cc1` (configuration not stated) the same measures were 8.21 µM and 12.9 µM. As for `CC(C)(C)CC(C)(C)c1ccc(OCCOCC[N+](C)(C)Cc2ccccc2)cc1`, the IC50 was 42.8 µM and the IC90 turned out to be 47.1 µM. For `NC(=O)c1cccc(-c2cc(Nc3ccc(OC(F)(F)F)cc3)ncn2)c1` the same measures were 24.5 µM and greater than 25 µM. On the same counts, the results for `COc1cc(C(=O)/C=C/c2cccnc2)c([N+](=O)[O-])cc1OC` are 17.5 µM and 26.2 µM.

As for `CC(C)OC(=O)/C(C#N)=C/c1ccc(-c2ccc(SC(F)F)cc2)o1`, the IC50 is 5.19 µM and the 90% effect concentration (IC90) was 8.24 µM. `c1ccc(C[C@H]2CN=C(Nc3ccccc3)N2CCCC2CCCC2)cc1`: the half-maximal inhibitory concentration (IC50) is 33.1 µM and the IC90 worked out at 44.5 µM. As to `Cc1ccc(OC(=O)c2oc3ccc(F)cc3c2C)c(C)c1`, the IC50 is 12 µM and the concentration for an effect of 90% (IC90) stood at 13.9 µM.

On to `CNc1nc(-c2ccccn2)nnc1-c1ccccc1`, for which the IC50 is 22.7 µM and the IC90 turned out to be 25.4 µM.

For the molecule `O=C(/C=C/c1cn(-c2ccccc2)nc1-c1cccnc1)c1ccco1`, the IC50 was 39.5 µM and the IC90 was found to be 54.8 µM. For `Cn1cc(C(=O)c2ccc(Cl)cc2)cc1-c1nc2ccccc2n1C` the same measures were 35.9 µM and 49.5 µM. On the same counts, the results for `COc1ccc(N2C(=O)C(Cl)=C(Nc3ccccc3O)C2=O)cc1` are 18.4 µM and 24.8 µM. For the molecule `CC1=NN(c2ccccc2)C(=O)/C1=C\c1c(C)[nH]n(-c2ccccc2)c1=O`, the concentration for an effect of 90% (IC90) is greater than 100 µM. As for `Cc1ccc(C2CC(c3cccs3)=NN2C(=O)CCl)cc1` (configuration not stated), the IC50 was 1.42 µM and the IC90 was 1.77 µM.

Regarding `CCC(C)Nc1ccc(NC(C)CC)cc1` (configuration not stated), the IC50 was 2.31 µM and the IC90 was found to be 2.97 µM. For `O=S(Cc1ccc(Br)cc1)Cc1nnc(SCc2ccc(Cl)cc2)n1-c1ccccc1` (configuration not stated) the same measures were 83.2 µM and greater than 100 µM. Take `CCNc1nc(Nc2ccc(C)c(Cl)c2)c2cnn(C)c2n1`: the IC50 is 70 µM and the IC90 was greater than 100 µM. `Cc1nc2ccccc2c2nc3ccccc3n12`: the IC50 is 30.6 µM and the IC90 stood at 48.4 µM. Consider `O=C(N[C@H]1CCC(=O)N(CCSc2ccc(Br)cc2)CC1)OCc1ccccc1`, for which the IC50 was 32.9 µM and the IC90 was 46.6 µM. Consider `CCc1cc2c(=O)c(-c3cnn(-c4ccccc4)c3)c(C)oc2c(CN2CCCCC2)c1O`, for which the IC50 was 32.4 µM and the IC90 is 52.4 µM.

As for `Cc1ccc2c(c1)c1ncnc(N3CCc4ccccc4C3)c1n2C`, the IC50 was 73.8 µM and the IC90 was greater than 100 µM. Consider `Cc1nc(N2CCN(c3ccccn3)CC2)c2c(C)c(C(=O)N3CCN(c4ccc(F)cc4)CC3)sc2n1`, for which the IC50 is 11.2 µM and the IC90 came out at 12.9 µM. Consider `COC(=O)COc1ccc(-c2ccccc2)cc1C=O`, for which the IC50 was 16.1 µM and the IC90 was 26 µM.

As to `Cc1c([N+](=O)[O-])cnc(Sc2ccccc2)c1[N+](=O)[O-]`, the IC50 was 5.8 µM and the IC90 is 9.94 µM. As for `O=C(CCc1c[nH]c2ccccc12)N1CCN(S(=O)(=O)c2ccccc2)CC1`, the 50% inhibitory concentration (IC50) is 78.7 µM and the IC90 was greater than 100 µM. As to `CC(C)(Oc1ccc(Cl)cc1)C(=O)OCC(=O)N1CCN(c2ccccc2)CC1`, the IC50 is 52 µM and the IC90 came out at 80.9 µM. For the molecule `COc1ccc(-c2nnc3sc(C4CCCCC4)nn23)cc1OC`, the IC50 is 45.6 µM and the IC90 came to 51.6 µM.

`Cc1cc(C=C2C(=O)NC(=S)NC2=O)c(C)n1C1CCCC1`: the concentration for half-maximal inhibition (IC50) was 34.9 µM and the IC90 amounted to 73.9 µM.

Consider `Cc1ccc(C)c(N2CCN(C(=O)c3ccc4nc(N5CCOCC5)sc4c3)CC2)c1`, for which the IC50 was 35.2 µM and the 90% effect concentration (IC90) worked out at 47.6 µM. Take `CCCCOC(=O)CSc1nnc(-c2ccc(Cl)cc2Cl)o1`: the IC50 was less than 0.2 µM and the concentration for an effect of 90% (IC90) amounted to 7.21 µM.

Take `COc1ccc(C(=O)c2c(C(F)(F)F)oc3c2C(=O)c2ccccc2C3=O)cc1OC`: the 50% inhibitory concentration (IC50) was 16.7 µM and the concentration for an effect of 90% (IC90) turned out to be 22.1 µM. As for `COC(=O)c1ccc2c(=O)[nH]c(CSc3nc(C)cs3)nc2c1`, the IC50 was 71.2 µM and the IC90 was greater than 100 µM.

As for `CCOC(=O)c1cnc(Nc2nc3ccccc3o2)nc1CSC(=S)N(CC)CC`, the IC50 was 49.3 µM and the IC90 was 56.6 µM. For `CN(C)C/C=C/C(=O)Nc1cccc(-c2c[nH]c3ncnc(Oc4ccc(NC(=O)CC(=O)Nc5ccc(F)cc5)cc4F)c23)c1` the same measures were 12.3 µM and 14 µM. On the same counts, the results for `O=C(Cc1ccc([N+](=O)[O-])cc1)Nc1cc(C(F)(F)F)cc(C(F)(F)F)c1` are 2.48 µM and 3.41 µM.

Take `c1ccc(CC2CCN(C3=Nc4cccc5cccc3c45)CC2)cc1`: the IC50 is 28.3 µM and the IC90 came to 37.9 µM. `Cc1ccnc(NC(=O)c2cc3ccccc3o2)c1` returned an IC90 greater than 50 µM.

`COc1cccc(-c2nnc(NC(=O)c3ccc(S(=O)(=O)N4CCOCC4)cc3)o2)c1`: the IC50 is 32.4 µM and the IC90 is 46 µM.

Regarding `O=C(CSc1nc2ncc(Br)cc2[nH]1)Nc1ccc2c(c1)OCO2`, the IC50 is 25.1 µM and the IC90 was greater than 100 µM. On the same counts, the results for `Nc1ccc(N=Nc2ccccc2)c2cccnc12` are 34.7 µM and 64.2 µM.

With `Cc1cccc(N(C(=O)c2nsc(Cl)c2Cl)C(C(=O)NC2CCCC2)c2ccc(O)cc2)c1C` (configuration not stated), the 50% inhibitory concentration (IC50) is 30.8 µM and the IC90 turned out to be 41 µM. `COc1ccc2c(c1)CC/C(=C\C=C\c1ccccc1OC)C2=O`: the IC90 was greater than 100 µM. On to `Cc1cc(-c2c(C)[nH]n(-c3ccccc3)c2=O)n[nH]1`, for which the IC50 is 39.4 µM and the IC90 was greater than 100 µM.

Take `CCOC(=O)c1ccc(N=c2sc(C(=O)OC)cc(=O)n2CCCN2CCOCC2)cc1`: the IC50 is 9.02 µM and the IC90 was determined as 16.9 µM. As to `COc1ccc(SN=C2C(C)=CC(=O)C=C2C)cc1`, the IC50 was 22.4 µM and the IC90 came out at 24.9 µM. For the molecule `COc1ccc(-c2oc(NC(=O)CCl)c(C#N)c2-c2ccc(OC)cc2)cc1`, the IC50 was 43 µM and the IC90 amounted to 61.7 µM. On the same counts, the results for `Cc1c(Cl)ccc2c1NC(=O)[C@]21N[C@@H](Cc2ccccc2)[C@H]2C(=O)N(c3ccc(F)cc3)C(=O)[C@H]21` are 23.4 µM and 26.6 µM. Turning to `CCOc1ccc(OCCSc2ccc(S(=O)(=O)N3CCN(C)CC3)cn2)cc1`, the IC50 was 25.5 µM and the IC90 was 28.8 µM. For the molecule `CCOc1cc2c(cc1OCC)-n1cccc1C(c1ccc(C(C)C)cc1)NC2` (configuration not stated), the IC50 is 20.2 µM and the IC90 was determined as 28.7 µM. For `Cc1ccc(OCc2cc(C(=O)N(C)Cc3cnc4ccccn34)no2)cc1C`, the IC50 is 35.1 µM and the IC90 is greater than 100 µM.

Source of the values: PubChem BioAssay AID449764 (Southern Research Specialized Biocontainment Screening …, 2010).
